Measurements taken from patent publication US10981932B2, “Macrocyclic indole derivatives” (Bayer Aktiengesellschaft, priority 2016, dated 2021).
Counter-ions that a name gives are not always drawn. Like-named read-outs stand apart in the source and are kept apart here.

Experiments:
MCL-1 = MCL-1 (Homo sapiens, UniProt Q07820); test: Protein-protein interaction assay MCL-1/Noxa BH3 peptide (MCL-1 assay), TR-FRET; type: binding; details: MBP-MCL-1 / Noxa BH3-derived peptide, median
Procedure, shortened: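 TR-FRET, 665/622 nm emission ratio (excitation 330–350 nm), measured MCL-1/Noxa complex formation. 1 nM MBP-MCL-1, 50 mM Tris/HCl pH 7, 0.1% BGG, 2 mM DTT. Incubation 1 h at 22 °C, then overnight at 4 °C. IC50 by 4-parameter regression, normalized to DMSO (0%) and no-MCL-1 (100%) controls.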

SUDHL5 [1] = test: Induction of caspase-3/7 activity (Caspase-Glo 3/7), SUDHL5; type: cell-based; details: caspase-3/7 induction, SUDHL5 cells, 3 h treatment, median
Procedure, shortened: (§1)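 DLBCL cells treated with compounds for 3 h at 37 °C, then caspase-3/7 activity read by Caspase-Glo 3/7 luminescence. Medium-only background subtracted; EC50 fitted with C0 fixed at 1 and top set to the reference compound's maximal induction.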

SUDHL10 [2] = test: Induction of caspase-3/7 activity (Caspase-Glo 3/7), SUDHL10; type: cell-based; details: caspase-3/7 induction, SUDHL10 cells, 3 h treatment, median
Procedure, shortened: as §1

SUDHL5 [3] = test: Anti-proliferative effect (CellTiter-Glo, 72 h), SUDHL5; type: cell-based; details: SUDHL5 cells, antiproliferation, median, read-out: Antiproli SUDHL5 [M] (median)
Procedure, shortened: (§2)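 A time zero plate, read with CellTiter-Glo shortly after seeding, served as baseline; compound-treated plates were incubated 72 h at 37 °C and then read identically by luminescence.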

SUDHL10 [4] = test: Anti-proliferative effect (CellTiter-Glo, 72 h), SUDHL10; type: cell-based; details: SUDHL10 cells, antiproliferation, median, read-out: Antiproli SUDHL10 [M] (median)
Procedure: Assessment of the Anti-Proliferative Effect of Compounds in Different Cell Lines
The impact of compounds on the proliferation of different cell lines was assessed using the CellTiter-Glo® Luminescent Cell Viability reagent from Promega (G7573). Of note, SUDHL10 and SUDHL5 (DLBCL), NCI-H929 (Multiple Myeloma), A2780 (ovarian carcinoma) as well as MV-4-11(AML) cells are sensitive to MCL-1 inhibition.
In parallel, cells were plated in a reference (day 0) plate for time zero determination.
Rim wells were excluded. The cells were incubated for 72 h hours in a humidified incubator at 37° C. The day 0 plate was measured by adding 30 μl/well of CTG solution (CellTiter-Glo® Luminescent Cell Viability reagent, Promega G7573) to time zero wells in the reference plate followed by a 10 minutes incubation and luminescence reading at 0.1 ms, using the PHERAstar FS microplate reader (BMG Labtech).
After 72 h incubation, the treated plates were measured in the same way as the day 0 plate mentioned above.

A2780 = test: Anti-proliferative effect (CellTiter-Glo, 72 h), A2780; type: cell-based; details: A2780 cells, median, read-out: IC50 antiproliferation assay A2780 [M] (median)
Procedure, shortened: as §2

SUDHL5 [5] = test: Induction of cytotoxicity (CellTiter-Glo, 5 h), SUDHL5
SUDHL10 [6] = test: Induction of cytotoxicity (CellTiter-Glo, 5 h), SUDHL10
[7] = Homo sapiens, SU-DHL-5, 72 h, 72 h
[8] = Homo sapiens, SU-DHL10, 72 h, 72 h
[9] = Homo sapiens, SU-DHL-5, 5 h, read-out: Cytotox SUDHL5 [M] (median), SUDHL5 cells, cytotoxicity induction, CellTiter-Glo, 5 h, median
[10] = Homo sapiens, SU-DHL10, 5 h, read-out: Cytotox SUDHL10 [M] (median), SUDHL10 cells, cytotoxicity induction, CellTiter-Glo, 5 h, median
[11] = read-out: Cytotox SUDHL5 [M] (median), SUDHL5 cells, cytotoxicity induction, CellTiter-Glo, 5 h incubation, median
[12] = read-out: Cytotox SUDHL10 [M] (median), SUDHL10 cells, cytotoxicity induction, CellTiter-Glo, 5 h incubation, median
[13] = Homo sapiens, SU-DHL-5, 72 h, 72 h incubation
[14] = Homo sapiens, SU-DHL10, 72 h, 72 h incubation
[15] = Homo sapiens, SU-DHL-5, 5 h, read-out: Cytotox SUDHL5 [M] (median), SUDHL5 cells, cytotoxicity induction, CellTiter-Glo, 5 h incubation, median
[16] = Homo sapiens, SU-DHL10, 5 h, read-out: Cytotox SUDHL10 [M] (median), SUDHL10 cells, cytotoxicity induction, CellTiter-Glo, 5 h incubation, median

MCL-1, sequence (Q07820 whole entry): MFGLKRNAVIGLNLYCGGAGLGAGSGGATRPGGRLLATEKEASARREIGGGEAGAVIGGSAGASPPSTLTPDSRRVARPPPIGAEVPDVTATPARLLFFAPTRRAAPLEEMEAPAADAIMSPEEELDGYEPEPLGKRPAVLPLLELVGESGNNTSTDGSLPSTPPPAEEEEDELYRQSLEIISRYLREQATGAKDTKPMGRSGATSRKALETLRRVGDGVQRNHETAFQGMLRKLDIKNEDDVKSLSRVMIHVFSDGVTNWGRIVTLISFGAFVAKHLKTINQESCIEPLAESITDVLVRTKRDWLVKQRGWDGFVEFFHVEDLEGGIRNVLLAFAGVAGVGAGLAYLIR

IC50 (MCL-1) | EC50 (SUDHL5 [1]; Homo sapiens, SU-DHL-5, 3 h) | EC50 (SUDHL10 [2]; Homo sapiens, SU-DHL10, 3 h) | IC50 (SUDHL5 [3]; [7]) | IC50 (SUDHL10 [4]; [8]) | IC50 (A2780; Homo sapiens, A2780, 72 h) | EC50 (SUDHL5 [1]) | EC50 (SUDHL10 [2]) | IC50 (A2780) | IC50 (SUDHL5 [3]; [13]) | IC50 (SUDHL10 [4]; [14]) | SMILES | IC50 (SUDHL5 [5]; [9]) | IC50 (SUDHL10 [6]; [10]) | IC50 (SUDHL5 [5]; [11]) | IC50 (SUDHL10 [6]; [12]) | IC50 (SUDHL5 [5]; [15]) | IC50 (SUDHL10 [6]; [16]) | other results
0.0451 µM | 25 µM | > 33 µM | 3.15e-05 M | 1.9e-05 M | > 3.3e-05 M | – | – | – | – | – | CC(=O)N(C)Cc1nn(C)c2c1-c1cccc3c(CCCOc4cccc5ccccc45)c(C(=O)O)n(c13)CCCCOC2 (racemic) [Example 342, (rac)-3-{[acetyl(methyl)amino]methyl}-1-methyl-7-[3-(naphthalen-1-yloxy)propyl]-1,10,11,12,13,15-hexahydropyrazolo[4′,3′:9,10][1,6]oxazacycloundecino[8,7,6-hi]indole-8-carboxylic Acid] | > 3.3e-05 M | > 3.3e-05 M | – | – | – | – | –
0.00901 µM | – | – | – | – | – | > 33 µM | > 33 µM | 1.37e-05 M | – | – | CCc1c2c(nn1C)CN(C)CCCn1c(C(=O)O)c(CCCOc3cccc4ccccc34)c3ccc(C)c-2c31 (single isomer, unassigned; enantiomer 2) [Example 146, 11-Ethyl-7,10,12-trimethyl-1-[3-(1-naphthyloxy)propyl]-4,5,6,7,8,10-hexahydropyrazolo[3′,4′:7,8][1,5]diazecino[9,10,1-hi]indole-2-carboxylic acid-N-ethylethanamine Salt (Enantiomer 2)] | – | – | 1.66e-05 M | 2.67e-05 M | – | – | IC50 (SUDHL5 [3]; 72 h incubation): 1.93e-05 M; IC50 (SUDHL10 [4]; 72 h incubation): 1.05e-05 M
0.00375 µM | 1.73 µM | 6.09 µM | – | – | 1.78e-05 M | – | – | – | 4.17e-06 M | 5.15e-06 M | CCc1c2c(nn1CCN1CCOCC1)COCCCCn1c(C(=O)O)c(CCCOc3cccc4ccccc34)c3ccc(C)c-2c31 (racemic) [Example 204, (rac)-3-ethyl-4-methyl-2-[2-(morpholin-4-yl)ethyl]-7-[3-(naphthalen-1-yloxy)propyl]-2,10,11,12,13,15-hexahydropyrazolo[4′,3′:9,10][1,6]oxazacycloundecino[8,7,6-hi]indole-8-carboxylic Acid] | – | – | – | – | 1.9e-06 M | 5.63e-06 M | –
0.00474 µM | – | – | – | – | 2.34e-05 M | 3.17 µM | 12.9 µM | > 3.3e-05 M | – | 8.78e-06 M | O=C(O)c1c(CCCOc2cccc3ccccc23)c2cccc3c2n1CCCCOCc1nn2c(c1-3)OCCC2 (single isomer, unassigned) [Example 248, 1-[3-(naphthalen-1-yloxy)propyl]-4,5,6,7,13,14-hexahydro-9H,12H-[1,3]oxazino[3″,2″:1′,5]pyrazolo[4′,3′:9,10][1,6]oxazacycloundecino[8,7,6-hi]indole-2-carboxylic Acid] | – | – | 3.38e-06 M | 1.29e-05 M | – | – | IC50 (SUDHL5 [3]; 72 h incubation): 6.51e-06 M
0.00774 µM | 4.83 µM | 13.2 µM | – | – | 2.93e-05 M | – | – | – | 2.26e-06 M | 7.27e-06 M | CCc1nn(C)c2c1-c1c(C)ccc3c(CCCOc4cc(C)c(Cl)c(C)c4)c(C(=O)O)n(c13)CCCCOC2 (racemic) [Example 269, (rac)-1(3-(4-chloro-3,5-dimethylphenoxy)propyl)-12-ethyl-10,13-dimethyl-4,5,6,7,9,10-hexahydropyrazolo[4′,3′:9,10][1]oxa[6]azacycloundecino[8,7,6-hi]indole-2-carboxylic Acid] | – | – | – | – | 4.98e-06 M | 1.47e-05 M | –
0.0819 µM | 31 µM | > 33 µM | 1.86e-05 M | 1.67e-05 M | > 3.3e-05 M | – | – | – | – | – | COc1ccc2c(CCCOc3cccc4ccccc34)c(C(=O)O)n3c2c1-c1c(nn(C)c1C)COCCCC3 (racemic) [Example 349, (rac)-4-methoxy-2,3-dimethyl-7-[3-(naphthalen-1-yloxy)propyl]-2,10,11,12,13,15-hexahydropyrazolo[4′,3′:9,10][1,6]oxazacycloundecino[8,7,6-hi]indole-8-carboxylic Acid] | 2.43e-05 M | > 3.3e-05 M | – | – | – | – | –
0.00965 µM | 13.9 µM | > 33 µM | – | – | > 3.3e-05 M | – | – | – | 1.64e-05 M | 1.46e-05 M | Cc1ccc2c(CCCOc3cccc4ccccc34)c(C(=O)O)n3c2c1-c1c(C)nn(C)c1COCC=CC3 (racemic) [Example 038, (rac)-(E/Z)-1,3,4-trimethyl-7-[3-(1-naphthyloxy)propyl]-1,10,13,15-tetrahydropyrazolo[4′,3′:9,10][1,6]oxazacycloundecino[8,7,6-hi]indole-8-carboxylic Acid] | – | – | – | – | 1.46e-05 M | > 3.3e-05 M | –
0.0219 µM | 21.1 µM | > 33 µM | 4.71e-06 M | > 3.3e-05 M | > 3.3e-05 M | – | – | – | – | – | CC(=O)NCc1nn(C)c2c1-c1cccc3c(CCCOc4cccc5ccccc45)c(C(=O)O)n(c13)CCCCOC2 (single isomer, unassigned; enantiomer 1) [Example 340, 3-[(acetylamino)methyl]-1-methyl-7-[3-(naphthalen-1-yloxy)propyl]-1,10,11,12,13,15-hexahydropyrazolo[4′3′:9,10][1,6]oxazacycloundecino[8,7,6-hi]indole-carboxylic Acid (Enantiomer 1)] | 1.56e-05 M | > 3.3e-05 M | – | – | – | – | –
0.977 µM | – | – | – | – | – | > 33 µM | > 33 µM | > 3.3e-05 M | – | – | Cn1nc(CN2CCCC2)c2c1COCCCCn1c(C(=O)O)c(CCCOc3cccc4ccccc34)c3cccc-2c31 (single isomer, unassigned; enantiomer 2) [Example 337, 1-methyl-7-[3-(naphthalen-1-yloxy)propyl]-3-(pyrrolidin-1-ylmethyl)-1,10,11,12,13,15-hexahydropyrazolo[4′3′:9,10][1,6]oxazacycloundecino[8,7,6-hi]indole-carboxylic Acid (Enantiomer 2)] | – | – | – | – | – | – | IC50 (SUDHL5 [3]; 72 h): 1.97e-05 M; IC50 (SUDHL10 [4]; 72 h): > 3.3e-05 M; IC50 (SUDHL5 [5]; read-out: Cytotox SUDHL5 [M] (median), SUDHL5 cells, cytotoxicity induction, CellTiter-Glo, 5 h, median): > 3.3e-05 M; IC50 (SUDHL10 [6]; read-out: Cytotox SUDHL10 [M] (median), SUDHL10 cells, cytotoxicity induction, CellTiter-Glo, 5 h, median): > 3.3e-05 M
0.00184 µM | – | 11.1 µM | – | – | 3.04e-05 M | 3.04 µM | – | > 3.3e-05 M | 6.44e-06 M | 4.29e-06 M | Cc1ccc2c(CCCOc3cccc4ccccc34)c(C(=O)O)n3c2c1-c1c(C)nn(C)c1COCCC3 (single isomer, unassigned; enantiomer 1) [Example 025, (+)-9,11,12-trimethyl-1-[3-(naphthalen-1-yloxy)propyl]-5,6,8,9-tetrahydro-4H-pyrazolo[4′,3′:8,9][1,5]oxazecino[7,6,5-hi]indole-2-carboxylic acid-N-ethylethanamine Salt (Enantiomer 1)] | – | – | 2.98e-06 M | 8.77e-06 M | – | – | –
